# What was measured:
# [1] = molecular target: EGFR (Homo sapiens, UniProt P00533); details: binding to the EGFR; read-out: dissociation constant; cited from earlier work
# [2] = system: 9L.E29 cells; experiment: Cell viability assay using Trypan blue; type: cell-based, rat; details: 1 μM of Pc 4 and 1 J/cm^2 of laser power
# Text: Cell viability assays using Trypan blue for EGFpep-Au NP-Pc 4 treated cells further illustrated this point (FIG. 4C), showing not only an increase in the number of dead cancer cells, but possibly different pathways of cell death.
# [3] = system: 9L.E29 cells; details: free Pc 4, stated as known; cited from earlier work
# [4] = system: glioma cancer cells; details: stated as known; cited from earlier work
Substance,Kd [1] [µM],mode of cell death (Trypan blue staining) [2],subcellular localization of Pc 4 (known) [3],localization of free Pc 4 (known) [4]
"YHWYGYTPQNVI [EGF peptide, YHWYGYTPQNVI-amide]",0.022,,,
phthalocyanine 4 [free Pc 4],,caused most cancer cells to die very quickly,localize mainly in mitochondria with some additional localization within lysosomes,known to locate in the mitochondria

# — US10905762B2, “Targeted nanoparticle conjugates” (CASE WESTERN RESERVE UNIVERSITY, priority 2011, dated 2021)
